SMILES strings stand for the structures.

One may read the melting point as the temperature, or range, at which the solid turns liquid.

`COc1ccccc1NC(=O)Nc1nc(NCCC(=O)O)nc(Nc2ccccc2-c2ccccc2)n1`: the melting point was 196 to 205 °C.
On to `Cc1nc(S(=O)(=O)n2ccc(/C=C/C(=O)NO)c2)cn1C`, for which the melting point is 190 to 194 °C.
Compound `COc1ccc(-c2c(Cl)c(CN3C(=O)COC3=O)nc3sc4c(c23)CCC(C(N)=O)C4)cc1` (configuration not stated) registered a melting point of 155 to 156 °C.
`CCOC(=O)c1cc(-c2ccc(Cl)cc2)cnc1C` gave a melting point of 71 °C.
Take `Oc1ccc2cc(-c3nc(-c4ccccc4)sc3Br)ccc2c1Br`: the melting point fell in the range of 198 to 200 °C.
Regarding `Cc1ccc2nc(N3CCN(c4c(Cl)cncc4Cl)CC3)[nH]c2c1`, the melting point is 251 to 254 °C.
Compound `O=C(Nc1ccc([N+](=O)[O-])cc1)N1CCN(c2nc(-c3ccccc3)nc3ccccc23)CC1` showed a melting point of 236 to 238 °C.
As for `CC(C)NS(=O)(=O)c1cc(Br)c(N)c(Br)c1`, the figure is 181 to 183 °C; as for `Oc1ccc(C(=C2SCCCS2)c2ccccc2)cc1`, 135 to 137 °C.
The compound `CCOc1ccc(CN2C(=O)SC(CCCC#Cc3ccc(Cl)cc3)(S(=O)(=O)c3ccc(C)cc3)C2=O)c(OCC)c1` (configuration not stated) returned a melting point of 151 to 153 °C.
`CN1CCNC1=C(Br)[N+](=O)[O-]` gave a melting point of 97 °C.
In turn, `Cc1ccc(C(=O)n2c3c(c4ccccc42)CC(C(=O)O)CC3)cc1` (configuration not stated) showed a melting point of 210 to 212 °C.
Turning to `N#Cc1ccc(NC2CCCCC2)c([N+](=O)[O-])c1`, the melting point turned out to be 109 °C.
As for `Cc1cc(-c2cc(C(F)(F)F)nn2-c2ccc(S(C)(=O)=O)c(F)c2)ccc1-c1cscn1`, the figure is 112 to 114 °C.
With `Cc1oc(-c2ccccc2)nc1COc1ccc2c(c1)CCC(CO)=C2`, the melting point was in the range of 141 to 142 °C.
Take `CCC(=O)N1N=C(c2ccc([N+](=O)[O-])cc2)c2cc(Cl)ccc2CC1C` (configuration not stated): the melting point was 160 to 161 °C.
`CNC(=O)N(O)Cc1ccc(OCCc2nc(-c3ccccc3)oc2C)cc1` yielded a melting point of 139 to 144 °C.
The compound `Cc1cc(NCc2ccccc2)c(C)c2c1OCC2c1ccc(C(C)C)cc1` (configuration not stated) returned a melting point of 82 to 83 °C.
Take `COc1cc(C)cc(C2=NC(C)(C)CO2)c1N`: the melting point fell in the range of 135 to 138 °C.
The compound `CC(C)(O)c1cccc(-c2ccc3nc(-c4ccc5cc[nH]c5c4)cn3c2)c1` registered a melting point of 203 to 204 °C.
In turn, `CNS(=O)(=O)Cc1ccc2c(c1)c(CC#N)cn2Cc1ccccc1` came in with a melting point of 133 to 135 °C.
`CC(O)c1cc(Cl)cc(Cl)c1O` (configuration not stated) gave a melting point of 70 °C.
As for `Cc1c(C)c(NC(=O)CC(C)(C)C)c2c(c1C)C(O)(c1ccc(C(C)C)cc1)C(C)(C)O2` (configuration not stated), the figure is 178 to 179 °C; as for `COc1nc2ccc(Br)cc2cc1C(Br)c1ccccc1` (configuration not stated), 85 to 86 °C.
For the compound `CC(=O)Nc1cccc(NC(=O)C=C(C)C)c1`, the melting point is 144 to 148 °C.
`CCc1cn(C2CC(O)C(CCC(O)Cc3c(Cl)cccc3Cl)O2)c(=O)[nH]c1=O` (mixture of isomers) gave a melting point of 185 to 186 °C.
In the case of `CN(C)c1ccc(C(=O)c2cc(C(F)(F)F)cc(C(F)(F)F)c2)cc1` it was 129 to 131 °C; in that of `N#CCc1cc(O)c(O)c(F)c1`, 100 to 101 °C; in that of `COC(=O)Nc1ccc(Br)cn1`, 191 to 192 °C.
In turn, `O=C(NC(Cc1ccc(OCc2ccc(C(F)(F)F)cc2)cc1)C(=O)O)c1cn2ccc(-c3ccc(Cl)cc3)cc2n1` (configuration not stated) had a melting point of 263 °C.
In the case of `CCN1CCc2c(NC(C)=O)ccc(Br)c2C1` it was 168 to 169 °C.
In the case of `COC(=O)Cc1ccc2c(c1)C(OC)=Cc1ccccc1C2` it was 72 to 73 °C; in that of `CCC(OC(C)=O)C(C)[N+](=O)[O-]` (configuration not stated), 73 to 75 °C.
Consider `COc1ccc(NN=C(Sc2ccc(Cl)cc2)C(C)=O)cc1`, for which the melting point was in the range of 112 to 114 °C.
Turning to `c1ccc(-c2cc3n(n2)Cc2ccccc2-3)cc1`, the melting point was in the range of 183 to 184 °C.
In the case of `CCCCCCCCCCCCCCN(C(=O)CCCCCCCCCCC)C1(N)OC(CO)C(O)C(O)C1C(=O)C(N)C(=O)C(C)N` (configuration not stated) it was 115 to 117 °C.
Take `CCCc1oc(-c2ccccc2)nc1COc1ccc(COc2cccc(CC(=O)O)c2)cc1`: the melting point lay within 115 to 116 °C.
`COc1ccc2c(OC)c(C(C)C)cc(OC)c2c1` returned a melting point of 80 to 81.5 °C.
In the case of `CCc1ccc(C2C(C(=O)c3ccc(C(C)C)cc3)=C(O)C(=O)N2c2ccc(C)nn2)cc1` (configuration not stated) it was 282 to 284 °C; in that of `Cc1c(SCCCN2CCNCC2)ccnc1CNc1cnc2ccccc2c1`, 105 to 108 °C; in that of `CCn1c(=O)c2c(nc(/C=C/c3ccc(OC(C)=O)cc3)n2C)n(CC)c1=O`, 198 °C.
The compound `O=C(O)CCSC(SCCC(=O)O)c1cccc(CCc2ccc3ccc(Cl)cc3n2)c1` displayed a melting point of 160 to 161 °C.
`COc1c(C)c(C)c(OC)c(C(O)(c2cccnc2)C2CCCCC2)c1C` (configuration not stated): the melting point was 134 to 135 °C.
In turn, `N#Cc1ccc(N)c(F)c1F` registered a melting point of 108 to 110 °C.
`O=S(=O)(c1cccc(-c2cc(-c3nc(-c4ccc(C(F)(F)F)cc4)cc(C(F)(F)F)n3)ccn2)c1)N1CCCC1`: the melting point came out at 184 °C.
As for `O=C(O)[C@H](Cc1ccccc1)C[C@@H](Cc1ccccc1)C(=O)N[C@@H](COCc1ccccc1)C(=O)O`, the figure is 149 to 151 °C; as for `COc1ccccc1CCc1ccccc1C(=O)O`, 118 to 119 °C.
Compound `O=C(O)C(=NO)C(c1ccc(OCc2ccc3ccc(Cl)cc3n2)cc1)c1ccc(OCc2ccc3ccc(Cl)cc3n2)cc1` had a melting point of 201 to 202 °C.
`COC(=O)c1ccc(C(=O)c2ccccc2)cc1` returned a melting point of 133 to 135 °C.
`CC(O)CN1C(=O)N(CC(C)O)C(C)(C)C1=O` (configuration not stated) returned a melting point of 65 to 67 °C.
In the case of `O=CC1=C(Cl)C(=CO)CCC1` it was 127 °C.
Regarding `CC[C@@H]1N(c2ccc(C#N)c(Cl)c2)C(=O)C[C@]1(C)O`, the melting point is 144 to 146 °C.
`c1ccc(C2CC(Cc3ccncc3)(Cc3ccncc3)c3ccccc32)cc1` (configuration not stated) gave a melting point of 210 to 225 °C.
In the case of `CC(=O)N(C)Nc1nnc(-c2ccccc2C)s1` it was 106 to 108 °C.
As for `CC(=O)C=Cc1ccc(O)cc1`, the figure is 104 to 105 °C.
The compound `OCC#Cc1cc(Cl)cc2nc(-c3ccccc3Cl)oc12` returned a melting point of 165 to 169 °C.
The compound `COc1cc(C=C(C)[N+](=O)[O-])c(OC)c(C)c1C` had a melting point of 76 to 81 °C.
In turn, `CCNC(=O)Nc1nc2cc(-c3ccc(N(C)C)nc3)ccn2n1` displayed a melting point of 285 to 290 °C.
For the compound `CC(=O)Nc1cccc(NC(=O)Cc2ccc(-n3c(-c4cccnc4N)nc4ccc(-c5cccnc5)nc43)cc2)c1`, the melting point was in the range of 142 to 144 °C.
The compound `COc1nnc(N)c(=O)n1C` displayed a melting point of 198 to 199 °C.
In turn, `CCOC(=O)CC(=O)c1cc(F)c(OP(=O)(OCC)OCC)nc1Nc1ccc(F)cc1F` showed a melting point of 127 to 130 °C.
As for `CCCc1nc(C)c2c(Sc3ccc(NC(C)=O)cc3)nc(-c3ccccc3OCC)nn12`, the figure is 226 to 228 °C; as for `CN1C(=O)CC2(Cc3cc4ccccc4n3C2)C1=O` (configuration not stated), 154 to 156 °C.
Consider `CC(=O)NCCc1ccc(CN2CCN(c3ccc(F)cc3)CC2)cc1`, for which the melting point fell in the range of 121 to 123 °C.
In the case of `COC(=O)[C@H](Cc1ccc(NC(=O)c2c(Cl)cccc2Cl)cc1)NC(=O)C1(Cc2ccc(OC)cc2)CCCCC1` it was 85 to 87 °C.
In the case of `CNC(=NC#N)NCCSCc1ccc(CN)o1` it was 80 to 82 °C.
With `O=C(O)CCc1nc(-c2ccccc2)cc2ccccc12`, the melting point was found to be 160 °C.
In the case of `O=C(CCl)Nc1ccc(NC(=O)CCl)c2c1C(=O)c1ccccc1C2=O`, the melting point is 221 °C.
In the case of `CCOCc1nc2c(N)nc(C)c(C)c2n1CCOCCCc1cccnc1` it was 78 to 78.5 °C.
In turn, `COc1ccc(N2C(=O)CCNc3ccc(Cl)cc32)cc1` gave a melting point of 198 to 199 °C.
As for `CCOC(=O)C(C)(C)NC(=O)c1ccc(S(=O)(=O)n2c(=O)n(C3CCCCC3)c3cc(OCC)ccc32)c(OC)c1`, the figure is 202 °C.
In the case of `O=C(c1cccs1)c1cnn2c(-c3cccc(NC(=O)C4CCCC4)c3)ccnc12` it was 209 to 210 °C; in that of `O=C(O)C1(c2ccc(Nc3nc(N4CCCC4)nc4c3CCC4)cc2)CCC1`, 245 to 247 °C.
`CCCCCS(=O)(=O)NC(=O)/C=C/c1ccc(OC(COCC)COCC)cc1Oc1ncc(C(F)(F)F)cc1Cl` displayed a melting point of 83 to 85.5 °C.
The compound `NCc1ccc(C(=O)O)cc1[N+](=O)[O-]` came in with a melting point of 235 to 237 °C.
The compound `C[C@@H]1N(C)C(C)(C)CO[C@@]1(O)c1ccc(Cl)cc1` had a melting point of 167 to 169 °C.
In the case of `Cc1c(SCCCSc2ccc3ncc([N+](=O)[O-])n3n2)ccnc1CCl` it was 155 to 156 °C; in that of `CCCCCCCCCc1ccc(Oc2cccc(C#N)c2C#N)cc1`, 74 to 81 °C; in that of `N#CCc1cc(Cl)c(C(=O)c2ccc(Cl)cc2)[nH]1`, 194 to 197 °C.
Turning to `CN1CCN(CCCN2N=C3C(=Cc4ccccc4)CSCC3C2c2ccccc2)CC1` (configuration not stated), the melting point lay in the range of 90.5 to 92.5 °C.
`C=CC1(COC(C)=O)OC(OC2C(COCc3ccccc3)OC(OC)C(OCc3ccccc3)C2OCc2ccccc2)C(OC(C)=O)C(OC)C1OC(C)=O` (configuration not stated) gave a melting point of 47 °C.
For `C=CCNc1cc(Oc2cc(Cl)c(Br)cc2Cl)c(Cl)cc1[N+](=O)[O-]`, the melting point came to 102 °C.
For `CCOC(=O)CCc1nc2cccnc2n(-c2cccc(NC(=O)Nc3ccccc3OC)c2)c1=O`, the melting point amounted to 175 °C.
In the case of `C=CCc1ccc(-c2nc3c(N[C@H]4[C@@H](C(N)=O)[C@@H]5C=C[C@H]4C5)c(Cl)cnc3[nH]2)c(OC)c1`, the melting point was in the range of 123 to 126 °C.
As for `CC(Cc1c[nH]c2ccccc12)NC(=O)C=C1CCC(c2ccccc2)(N(C)C)CC1` (configuration not stated), the figure is 184 to 187 °C; as for `C=CCOc1ccc(CCC(=O)O)cc1`, 88 to 89 °C.
`CCCCCCCCNCC(O)C(O)C(O)C(O)CO` (configuration not stated) returned a melting point of 114 to 116 °C.
